Reference: patent US11390617B2, “Methods of treating non-Hodgkin lymphoma using 2-(2,6-dioxopiperidin-3-yl)-4-((2-fluoro-4-((3-morpholinoazetidin-1-yl)methyl)benzyl)amino)isoindoline-1,3-dione” (Celgene Corporation, priority 2019, dated 2022)

Experiments:
Experiment in all cases: NHL cell line viability/apoptosis 384-well flow cytometry assay
Assay type in all cases: cell-based
ROS-50 = ROS-50 (DLBCL), 120 hours
Description: (§1) The following exemplary anti-proliferative assay uses exemplary non-Hodgkin lymphoma (NIL) cell lines (including diffuse large B-cell lymphoma (DLBCL), follicular lymphoma (FL), and mantle cell lymphoma (MCL)) (Table 5). The in vitro growth inhibitory activity of Compound 1 described herein was evaluated using a 384-well flow cytometry assay.
(§2) The cell lines in Table 5 were plated in 384-well flat bottom plates and assessed with increasing concentrations of compound ranging from 0.00015 to 10 μM or dimethyl sulfoxide (DMSO) control. The final concentration of DMSO was 0.1% (v/v). Following the addition of Compound 1 or DMSO and incubation for 120 hours, cell number and cell death were analyzed by flow cytometry (Attune®, Thermo Fisher) using Annexin V and the live-cell impermeant DNA dye, DRAQ7. Phosphatidylserine translocates from the inner layer to the outer layer of the cell membrane early in apoptosis and Annexin V binds to the exposed phosphatidylserine found on the surface of an apoptotic cell. The vital dye DRAQ7 is excluded by intact live cells and only stains cells that have died as a result of apoptosis or necrosis.
(§3) Flow cytometry data analysis was then performed using the Flow Jo_v10 software to determine the number of viable cells (Annexin V and DRAQ7 double negative staining cells) and percentage of apoptotic cells (Annexin V positive cells) for each condition. The live cell count for every concentration was normalized to the DMSO control (considered as 100%) to calculate the percentage of viable cells remaining after treatment and graphed using GraphPad Prism 7.03. The IC50 (50% inhibitory concentration) and Emax (maximum efficacy achieved) values were then calculated by performing nonlinear regression curve fitting using log(inhibitor) vs. normalized response—variable slope analysis on GraphPad Prism 7.03. Area under the curve (AUC) was calculated by performing area under curve analysis on GraphPad Prism 7.03. Similarly, for apoptosis analysis, the percentage of apoptosis combining both “early” (Annexin V positive and DRAQ7 negative) and “late” apoptosis (Annexin V and DRAQ7 positive) cell gates relative to DMSO was graphed using GraphPad Prism 7.03. The AUC, EC50 (concentration of Compound 1 that produces half-maximal apoptosis response) and Ymax (maximal percentage of apoptosis achieved) values from apoptosis curves were calculated by performing area under curve analysis and nonlinear regression curve fitting using log(agonist) vs. normalized response—Variable slope analysis on GraphPad Prism 7.03.
(§4) In Table 6, dose-response proliferation curves for the panel of NHL cell lines and non-linear curve-fit regression were used to determine IC50, AUC, and Emax for % viable cells (Emax for viability varies between 100 at low doses and 0 at high doses, which corresponds to inhibition of all viable cells), and dose-response apoptosis curves were used to determine the EC50, AUC, and Ymax for % apoptosis (Ymax for apoptosis varies from 0 at low doses and 100 at higher doses which corresponds to death of all cells). Tumor cells were exposed to serial dilutions (0.00015 to 10 μM) of Compound 1 or dimethyl sulfoxide (DMSO) control for 5 days. Viability and apoptosis for all cell lines was determined by Annexin V/[…] flow cytometry.

U-2940 = U-2940 (DLBCL), 120 hours
Description: as §1, §2, §3, §4

OCI-LY1 = OCI-LY1 (DLBCL), 120 hours
Description: as §1, §2, §3, §4

OCI-LY3 = OCI-LY3 (DLBCL), 120 hours
Description: as §1, §2, §3, §4

WSU-DLCL = WSU-DLCL (DLBCL), 120 hours
Description: as §1, §2, §3, §4

RL = RL (FL), 120 hours
Description: as §1, §2, §3, §4

U-2904 = U-2904 (DLBCL), 120 hours
Description: as §1, §2, §3, §4

OCI-LY18 = OCI-LY18 (DLBCL), 120 hours
Description: as §1, §2, §3, §4

SU-DHL-1 = SU-DHL-1 (DLBCL), 120 hours
Description: as §1, §2, §3, §4

WILL-2 = WILL-2 (DLBCL), 120 hours
Description: as §1, §2, §3, §4

KARPAS-422 = KARPAS-422 (DLBCL), 120 hours
Description: as §1, §2, §3, §4

[1] = read-out: IC50 (% Viable Cells)
[2] = Homo sapiens, read-out: IC50 (% Viable Cells)

## O=C1CC[C@H](N2C(=O)c3cccc(NCc4ccc(CN5CC(N6CCOCC6)C5)cc4F)c3C2=O)C(=O)N1 [Compound 1, (S)-2-(2,6-dioxopiperidin-3-yl)-4-((2-fluoro-4-((3-morpholinoazetidin-1-yl)methyl)benzyl)amino)isoindoline-1,3-dione]
ROS-50
  AUC (% Viable Cells): 762.1
  AUC (Apoptosis): 87.92
  EC50: 335 nM
  Emax (% Viable Cells): 65.57%
  Ymax (Apoptosis): 10.9%
ROS-50; [1]
  IC50: ≥ 10000 nM
U-2940; Homo sapiens
  EC50: 31.4 nM
U-2940; [2]
  IC50: 6.31 nM
U-2940
  AUC (% Viable Cells): 70.43
  AUC (Apoptosis): 792.5
  Emax (% Viable Cells): 5.192%
  Ymax (Apoptosis): 82.19%
OCI-LY1; Homo sapiens
  EC50: 33.4 nM
OCI-LY1; [2]
  IC50: 6 nM
OCI-LY1
  AUC (% Viable Cells): 22.77
  AUC (Apoptosis): 852.3
  Emax (% Viable Cells): 1.037%
  Ymax (Apoptosis): 90.09%
OCI-LY3; Homo sapiens
  EC50: 0.263 nM
OCI-LY3; [2]
  IC50: ≥ 10000 nM
OCI-LY3
  AUC (% Viable Cells): 965.1
  AUC (Apoptosis): 24.63
  Emax (% Viable Cells): 85.63%
  Ymax (Apoptosis): 4.493%
WSU-DLCL
  AUC (% Viable Cells): 341.9
  AUC (Apoptosis): 565.1
  EC50: 18 nM
  Emax (% Viable Cells): 27.83%
  Ymax (Apoptosis): 59.91%
WSU-DLCL; [1]
  IC50: 142 nM
RL; Homo sapiens
  EC50: 157 nM
RL; [2]
  IC50: 8.76 nM
RL
  AUC (% Viable Cells): 234.8
  AUC (Apoptosis): 115.9
  Emax (% Viable Cells): 21.55%
  Ymax (Apoptosis): 13.93%
U-2904
  AUC (% Viable Cells): 334.1
  AUC (Apoptosis): 456.1
  EC50: 3290 nM
  Emax (% Viable Cells): 7.609%
  Ymax (Apoptosis): 77.39%
U-2904; [1]
  IC50: 201 nM
OCI-LY18; Homo sapiens
  EC50: 2.98 nM
OCI-LY18; [2]
  IC50: 0.944 nM
OCI-LY18
  AUC (% Viable Cells): 1.965
  AUC (Apoptosis): 965.2
  Emax (% Viable Cells): 0.05973%
  Ymax (Apoptosis): 97.44%
SU-DHL-1; Homo sapiens
  EC50: 1.1 nM
SU-DHL-1; [2]
  IC50: 0.549 nM
SU-DHL-1
  AUC (% Viable Cells): 31.14
  AUC (Apoptosis): 690.1
  Emax (% Viable Cells): 2.485%
  Ymax (Apoptosis): 73.83%
WILL-2
  AUC (% Viable Cells): 17.1
  AUC (Apoptosis): 916.9
  EC50: 89.7 nM
  Emax (% Viable Cells): 0.03115%
  Ymax (Apoptosis): 99.43%
WILL-2; [1]
  IC50: 2.36 nM
KARPAS-422; Homo sapiens
  EC50: 46.1 nM
KARPAS-422; [2]
  IC50: 13.1 nM
KARPAS-422
  AUC (% Viable Cells): 19.97
  AUC (Apoptosis): 911.9
  Emax (% Viable Cells): 0.8721%
  Ymax (Apoptosis): 93.99%
